Test results taken from publication PMC3220277 (2011).
Where two headings read alike, the source gives them in different places.

Columns and labels:
Format in all cases: binding
S100A4 [1] = target: T1, S100A4 (Homo sapiens, UniProt P26447); test: LC-ESI MS of covalent adducts
C3R/C86S S100A4 [2] = target: T2, C3R/C86S S100A4 (Homo sapiens, UniProt P26447, C3R/C86S); test: competitive fluorescence anisotropy against FITC-MIIA
S100A4 [3] = target: T1, S100A4; test: as above
C3R/C86S S100A4 [4] = target: T2, C3R/C86S S100A4; test: as above; remark: listed apart in the source

T1 sequence (P26447 2-101): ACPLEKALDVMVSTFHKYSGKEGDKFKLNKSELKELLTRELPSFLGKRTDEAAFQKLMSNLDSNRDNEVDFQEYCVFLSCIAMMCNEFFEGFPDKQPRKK
T2 sequence (P26447 2-101 C3R/C86S, one chain of several): as the sequence (P26447 2-101) above, with C2R, C85S counted along it

| IC50 (S100A4 [1]) | IC50 (C3R/C86S S100A4 [2]) | IC50 (S100A4 [3]) | IC50 (C3R/C86S S100A4 [4]) | Structure (SMILES) |
| --- | --- | --- | --- | --- |
| 1.8 ± 0.6 µM | 5.7 ± 0.5 µM |  |  | O=C1C(SCCO)=C(SCCO)C(=O)c2ccccc21 [NSC 95397, 2,3-bis[2-hydroxyethylsulfanyl]-1,4-naphthoquinone] |
|  |  | 2.7 ± 0.7 µM | 5.3 ± 0.6 µM | CC1=C(SCCO)C(=O)c2ccccc2C1=O [NSC 672121, 2-(2-hydroxyethylsulfanyl)-3-methylnaphthalene-1,4-dione] |
